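Five concentrations, 48 hours, 96-well plates. GI50: concentration for 50% inhibition of growth. TGI denotes the concentration required for complete inhibition of growth.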 Residues, ends and D or L forms follow the SMILES beside them. *: point of attachment. Cbz = O=C(OCc1ccccc1)*
Assays:
Assay in all cases: inhibition of tumour cell growth, NCI panel, 48 h
A549 NSCLC = system: A549 NSCLC
DU-145 prostate = system: DU-145 prostate
HCT-116 colon = system: HCT-116 colon
IGROV1 ovarian = system: IGROV1 ovarian
LOX IMVI melanoma = system: LOX IMVI melanoma
MALME-3M melanoma = system: MALME-3M melanoma
MCF7 breast = system: MCF7 breast
RXF 393 renal = system: RXF 393 renal
SF-268 CNS = system: SF-268 CNS
HL-60(TB) leukemia = system: HL-60(TB) leukemia

| Structure (SMILES) | TGI (A549 NSCLC) [µM] | TGI (DU-145 prostate) [µM] | TGI (HCT-116 colon) [µM] | TGI (IGROV1 ovarian) [µM] | TGI (LOX IMVI melanoma) [µM] | TGI (MALME-3M melanoma) [µM] | TGI (MCF7 breast) [µM] | TGI (RXF 393 renal) [µM] | TGI (SF-268 CNS) [µM] | GI50 (A549 NSCLC) [nM] | GI50 (DU-145 prostate) [nM] | GI50 (HCT-116 colon) [nM] | GI50 (HL-60(TB) leukemia) [nM] | TGI (HL-60(TB) leukemia) [µM] | GI50 (LOX IMVI melanoma) [nM] | GI50 (MCF7 breast) [nM] | GI50 (RXF 393 renal) [nM] | GI50 (SF-268 CNS) [nM] | GI50 (IGROV1 ovarian) [nM] | GI50 (MALME-3M melanoma) [µM] |
| --- | --- | --- | --- | --- | --- | --- | --- | --- | --- | --- | --- | --- | --- | --- | --- | --- | --- | --- | --- | --- |
| CC(=O)OCC1OC(n2ncc(=O)[nH]c2=O)C(OC(C)=O)C1OC(C)=O (stereo unspecified) | > 100 | > 100 | > 100 | > 100 | > 100 | > 100 | > 100 | > 100 | > 100 |  |  |  |  |  |  |  |  |  |  |  |
| CCNCCNc1cc(-c2ccc(C(F)(F)F)cc2)c(C#N)c2nc3cc(Cl)c(Cl)cc3n12 | 2.77 | 3.13 | 0.338 |  | 1.88 |  | 0.352 | 2.62 | 3.22 | 1370 | 1700 | 177 | 308 | 1.01 | 543 | 168 | 1300 | 1600 |  |  |
| CC(C)C[C@@H](C=O)NC(=O)[C@H](CC(C)C)NC(=O)[C@H](CC(C)C)NC(=O)OCc1ccccc1 (Cbz-Leu-Leu-Leu-aldehyde) | 12.8 | 10.6 | 1.04 | 3.08 | 0.46 |  | 14 | 0.371 | 1.45 | 578 | 530 | 294 | 330 | 1.89 | 206 | 422 | 199 | 297 | 444 |  |
| Oc1ccccc1/C=N\NC(=S)N/N=C/c1ccccc1O | > 100 | 61 | > 100 | 16.2 | 27.7 |  | 40.3 | > 100 | 44.1 | 3500 | 2950 | 1370 | 2040 | 14.6 | 1400 | 2380 | 5720 | 1080 | 1530 |  |
| CCCCCCCCCCCCCCCCN(CC)CC |  | 7.52 | 3.22 | 3.36 | 3.38 | 4.35 | 6.09 | 4.2 | 8.31 |  | 2790 | 1770 |  |  | 1730 | 2330 | 1880 | 2640 | 1790 | 1.92 |
| COC(=O)CNc1nc(N(C)O)nc(N(C)O)n1 | > 100 | 45 | > 100 | 39.4 | > 100 | 77.4 | > 100 | > 100 | > 100 | 3440 | 2150 | 1980 |  |  | 1710 | 3070 | 4850 | 1830 | 7380 | 19.3 |
| COc1ccc(NC(=O)c2ccc(NC3=C(Cl)C(=O)N(Cc4ccccc4)C3=O)cc2)c(OC)c1 | > 100 | 85.7 | 25.6 | 73.8 | > 100 |  | > 100 | > 100 | > 100 | 45400 | 28800 | 5400 | 13200 | 31.1 | 30100 | 33700 | 50200 | 29100 | 10800 |  |
| O=S(=O)(NCCCNc1cc(-c2cn(-c3ccccc3)nc2-c2cccc(O)c2)ccn1)c1ccc(Br)cc1 | 12.6 | 8.08 | 4.22 | 29 | 2.9 |  | 5.16 | 3.5 | 4.98 | 2600 | 2450 | 1710 | 1790 | 4.92 | 1490 | 1760 | 1090 | 1450 | 3580 |  |
| O=C1c2cc(F)ccc2-c2c1c1ccc([N+](=O)[O-])cc1c(=O)n2CCCBr | > 100 | > 100 | 36.7 | > 100 | 38.2 | > 100 | > 100 |  | > 100 | 25700 | 3380 | 7230 |  |  | 7620 | 1350 |  | 8560 | 17400 | 66.3 |
| N#CC1=C(N)Oc2c(sc3c(Br)cccc23)C1c1ccc(Cl)cc1 (stereo unspecified) | 3.52 | 3.29 | 1.79 | 4.35 | 8.45 |  | 5.07 | 3.01 | 7.62 | 1160 | 533 | 429 | 357 | 1.88 | 579 | 295 | 553 | 917 | 787 |  |
| NCCSC(c1ccccc1)(c1ccccc1)c1ccccc1 | 6.03 | 6.07 | 1.49 | 8.32 | 2.9 |  | 1.78 |  | 11.2 | 742 | 2320 | 373 | 879 | 3.03 | 1420 | 354 |  | 966 | 1250 |  |

From PubChem BioAssay (NCI)
